Test: xn = mol fraction of the nth substance listed
Details: 101 kPa

CC[n+]1ccn(C)c1.O=S(=O)([O-])C(F)(F)F + CCCO
speed of sound [m/s]
Details	278.15 K	288.15 K	298.15 K	308.15 K	318.15 K	328.15 K	338.15 K
x2 = 0.049	1475.1	1451.2	1428.3	1405.9	–	1362.5	1341.4
x2 = 0.1095	1465.8	1441.9	1419	–	1374.5	–	1331.7
x2 = 0.1497	1459	1435.5	1412.7	1390.3	1368.2	–	1325.3
x2 = 0.2004	1450.3	1426.7	–	–	1359.3	1337.6	1316.5
x2 = 0.3	1432.3	1408.4	1385.2	1362.3	1340	1317.9	1296.2
x2 = 0.3993	–	1388	1364.3	1341.1	1318.4	1295.9	1273.9
x2 = 0.499	1389.2	1364.6	1340.5	1316.9	1293.6	1270.7	1248.1
x2 = 0.6007	1363.1	1337.9	1313.4	1289.2	–	1241.7	1218.3
x2 = 0.6998	1335.8	–	1284.3	–	1234.2	1209.5	1185
x2 = 0.7996	1308.3	–	1253.7	1227	1200.5	1174.3	1148.2
x2 = 0.8496	1296	1267.3	1239.2	1211.4	1183.8	1156.5	1129.3
x2 = 0.8999	1286.3	1255.9	1226.3	1197.1	1168.1	1139.2	–
x2 = 0.9499	1279.8	1247.3	1215.6	–	–	–	1092

CC[n+]1ccn(C)c1.O=S(=O)([O-])C(F)(F)F + CO
speed of sound [m/s]
Details	278.15 K	288.15 K	298.15 K	308.15 K	318.15 K
x2 = 0.0511	1477.5	1454	1431.1	1408.8	1387
x2 = 0.1016	1472	1448.7	–	1403.7	1382
x2 = 0.1557	1466.4	1443	–	1398	1376.2
x2 = 0.2035	–	–	1414.4	1392	1370.1
x2 = 0.3006	1447.8	–	1401.5	1379.1	1357.3
x2 = 0.3988	1432.7	–	1386	1363.4	1341.2
x2 = 0.5074	1411.3	–	–	1341.7	1319.4
x2 = 0.5993	1388.7	1364.7	1341.2	1318.2	1295.5
x2 = 0.6995	1356.5	1332	1308	–	1261.2
x2 = 0.8001	1312.5	1287.1	1262.1	–	1213.5
x2 = 0.8498	1285	1258.6	1232.8	1207.4	1182.5
x2 = 0.8995	1253.3	1225.3	1198	1171.2	1144.8
x2 = 0.9495	–	1186	–	–	1099.2

— a compilation of properties of binary mixtures (doi:10.1021/je7001804)
